The subject of the experiment is BHK-21 cells. As to the kind of experiment: BHK-21 cell proliferation (cell growth) activity. It is filed as cell-based, hamster. Particulars: 3 days culture, compared with medium control. The procedure:
Cell growth activities of the samples were measured as BHK (baby hamster kidney) −21 cell proliferation activity, following the known method (Planta Med., 62,115-118,1996, and others). In detail, BHK-21 cells (1×10^4) were cultured in Eagle's minimum essential medium supplemented with 5% fetal bovine serum and 2 mM glutamine, for 3 days at 37° C. with different concentration (μg/ml) of test samples in 5% CO2/air at pH 7.2. The cells were treated with a mixture of trypsin and 0.02% EDTA solution to detach the cells from each well. The cells were harvested and the numbers of total viable cells were counted. The viability of the cells was determined by the method of dye-exclusion test using 0.4% trypan blue solution. The cell growth activity (%) was determined by comparing with the control cells (medium control).

As to `O=C1NC(CO)C(=O)N2C[C@H](O)CC12` (stereo partly shown) [Compound 2, 3′-Hydroxymethyl-4-hydroxypyrrolido [1,2-f] 2′, 5′-piperazinedione], the cell growth activity entry was “showed the cell growth activity”.
